Values joined by “and” are separate entries in the source; they are usually repeats but may differ in a detail not shown here. Equal values may be shown once. Read-outs that look alike come from different tables or passages of the source. Marks after values point to notes of the source that are not given here.
Key:
[1] = 50, 100, 200 or 400 kg/body weight/day orally for 2 consecutive days, observed 30 days
From the text: (§1) Male Swiss albino mice (Mus musculus), 6-8 weeks old with 25±3 g body weight from an inbred colony (obtained from Hamadard University, Delhi, India) were used for the present study. Animals were maintained under controlled conditions of temperature and light in an animal house and were provided with standard mice feed (procured from Hindustan Lever's Ltd. Delhi, India) and water ad libitum.

[2] = system: reduced glutathione (GSH)
Experimental: (§2) Thirty minutes after the last administration, the animals were exposed to 8 Gy gamma radiation. Survival of the animals was recorded for 30 days after irradiation. The reduced glutathione (GSH) and lipid peroxidation (LPO) levels in liver and blood were estimated after 30 minutes of radiation exposure.
The hepatic level of reduced glutathione (GSH) was determined as per the standard method. GSH content in blood was measured
Spectrophotometrically using Ellman's reagent (DTNB) as a colouring reagent. The absorbance was read at 412 nm using a UV-VIS Systronics Spectrophotometer.

[3] = Experimental: The general condition and body weights of the mice in all groups were observed daily. The percent change in body weight in each group of mice was recorded every day by dividing the average body weight of those mice on the first day of treatment.
[4] = system: bone marrow cells
Experimental: Cytogenetic damage in the bone marrow cells was studied by chromosomal aberration analysis at the end of the experiments. All animals were injected intra-peritoneally (i.p.) with 0.025% colchicine and sacrificed 2 hours later by cervical dislocation. Both femurs were dissected out. Metaphase plates were prepared by the air drying method. Bone marrow from the femur was aspirated, washed in saline, treated hypotonically (0.6% sodium citrate), fixed in 3:1 methanol:acetic acid, dried and stained with 4% Giemsa (Sigma, USA). Chromosomal aberrations were scored under a light microscope. A total of 400 metaphase plates were scored per animal. Different types of aberration-like chromatid breaks, chromosome breaks, fragments, rings, exchanges and dicentrics were scored. When breaks involved both chromatids, it was termed a “chromosome type” aberration, while “chromatid type” aberrations involved only one chromatid. If the deleted portion had no apparent relation to a specific chromosome, it was called a fragment.

[5] = system: spleen; details: day 10 post-irradiation
Experimental: The weight of the spleen at each autopsy interval (day 1, 3, 7, 10, 14 and 30 post-irradiation) was determined to study changes.

Remark: listed apart in the source
[6] = system: mice exposed to 6, 8 and 10 Gy gamma radiation
From the text: as §1
Cobalt teletherapy unit (ATC-C9) at the Cancer treatment centre, Radiotherapy Department, SMS Medical College & Hospital, Jaipur, India, was used for irradiation.
as §2
The protective capacity of an agent (chemical or plant extract) is expressed as dose reduction factor (DRF). It can be calculated by dividing the LD50/30 of experimental animals by LD^50/30 of control animals.
Mice of both groups (control as well as experimental) exposed to 6, 8 and 10 Gy gamma radiation were checked daily for 30 days and the percentage of mice surviving 30 days of exposure against each radiation dose was used to construct survival-dose response curves.
The results obtained are expressed as mean±SE. Student's “t” test was used to make a statistical comparison between the groups. Significance levels were set at P<0.05, P<0.01 and P<0.001. Regression analysis was done to obtain LD50/30 values and to determine the dose reduction factor (DRF).

[7] = system: endogenous spleen colony forming units (CFU-S); details: day 10 post-irradiation
Experimental: The endogenous spleen colony assay was done according to the method of Till and McCulloch. Endogenous spleen colony forming units (CFU-S) were determined on day 10 after irradiation. Animals were sacrificed by cervical dislocation. Their spleens were removed, weighed and fixed in Bouin's fixative. Grossly visible nodules on the surface of the spleen were counted with the naked eye.

[8] = system: lipid peroxidation (TBARS)
Experimental: as §2
The absorbance was read at 532 nm.

[9] = 100 mg/kg body weight/day, 2 days, + gamma radiation

Cc1c(-c2cnccn2)ssc1=S
toxic effect (mortality or any other sign) [1]: did not produce any toxic effect
Blood GSH ([2]; drug + 6 Gy): 3.02 ± 0.12^c μg/ml
Liver GSH ([2]; drug + 6 Gy): 52.44 ± 1.54^b μmole/gm
Blood GSH ([2]; drug + 8 Gy): 2.88 ± 0.11^b μg/ml
Liver GSH ([2]; drug + 8 Gy): 54.62 ± 1.72^c μmole/gm
Blood GSH ([2]; drug + 10 Gy): 2.40 ± 0.12 µg/mL
Liver GSH ([2]; drug + 10 Gy): 44.38 ± 1.42^c μmole/gm
Blood GSH ([2]; drug alone, no irradiation): 4.18 ± 0.18 µg/mL
Liver GSH ([2]; drug alone, no irradiation): 65.68 ± 1.48 μmole/gm
Maximum body weight loss in experimental groups [3, 9]: 22.05%
minimum body weight loss in experimental groups [3, 9]: 1.7%
increase in body weight from initial body weight at day-30 post-irradiation ([3]; drug + 6 Gy): 17%
increase in body weight from initial body weight at day-30 post-irradiation ([3]; drug + 8 Gy): 9.5%
increase in body weight from initial body weight at day-30 post-irradiation ([3]; drug + 10 Gy): 13.7%
Chromatid breaks ([4]; drug (100 mg/kg body weight/day) + 8 Gy): 3.18 ± 0.44^a %
Aberrant cells ([4]; drug + 8 Gy): 17.20 ± 1.20^c %
Aberrations per damaged cell ([4]; drug + 8 Gy): 2.21 ± 0.20^a
Centric rings ([4]; drug + 8 Gy): 1.26 ± 0.28%
Chromosome breaks ([4]; drug + 8 Gy): 1.04 ± 0.26^b %
Dicentrics ([4]; drug + 8 Gy): 1.10 ± 0.14%
Exchanges ([4]; drug + 8 Gy): 1.18 ± 0.32^b %
Fragments ([4]; drug + 8 Gy): 28.8 ± 3.20^c %
Polyploidy ([4]; drug + 8 Gy): 0.36 ± 0.01^c %
Pulverized cells ([4]; drug + 8 Gy): 1.28 ± 0.02^c %
Total aberrations ([4]; drug + 8 Gy): 38.10 ± 3.66^c %
Aberrant cells ([4]; drug alone): 0.61 ± 0.04%
Aberrations per damaged cell ([4]; drug alone): 1.21 ± 0.03^c
Centric rings ([4]; drug alone): 0.00 ± 0.00%
Chromatid breaks ([4]; drug alone): 0.14 ± 0.01%
Chromosome breaks ([4]; drug alone): 0.00 ± 0.00%
Dicentrics ([4]; drug alone): 0.00 ± 0.00%
Exchanges ([4]; drug alone): 0.00 ± 0.00%
Fragments ([4]; drug alone): 0.85 ± 0.04^b %
Polyploidy ([4]; drug alone): 0.18 ± 0.02%
Pulverized cells ([4]; drug alone): 0.00 ± 0.00%
Total aberrations ([4]; drug alone): 0.74 ± 0.02%
Spleen Weight ([5]; drug + 6 Gy): 42.44 ± 1.24^b mg
Spleen Weight ([5]; drug + 8 Gy): 32.62 ± 1.02^b mg
Spleen Weight ([5]; drug + 10 Gy): 34.38 ± 1.20^c mg
dose up to which no signs of toxicity and no mortality were observed (fasted 18 hours, observed 14 days post-drug treatment): up to 2 g/kg
amount administrable without significant toxicity (formulated with carboxymethyl cellulose (CMC)): up to 2000 mg/kg
radiation sickness ([6]; 100 mg/kg body weight/day before 6 Gy): No radiation sickness was observed
30-Day Survival Percentage ([6]; 100 mg/kg body weight/day orally, 2 days, before 6 Gy): 100%
30-Day Survival Percentage ([6]; 100 mg/kg body weight/day orally, 2 days, before 8 Gy): 61%
30-Day Survival Percentage ([6]; 100 mg/kg body weight/day orally, 2 days, before 10 Gy): 20%
LD50/30 of experimental animals ([6]; 100 mg/kg body weight/day orally, 2 days, before radiation, regression analysis of survival data): 8.82 Gy and 8.51 Gy
DRF (dose reduction factor) ([6]; LD50/30 of experimental animals divided by LD50/30 of control animals): 1.34
optimum dose exhibiting maximum radioprotection ([6]; for 2 consecutive days before irradiation (8 Gy)): 100 mg/kg body weight/day
Number of macroscopic colonies ([7]; drug + 6 Gy): 10.22 ± 0.62
Number of macroscopic colonies ([7]; drug + 8 Gy): 13.80 ± 0.84^c
Number of macroscopic colonies ([7]; drug + 10 Gy): 15.22 ± 0.77^c
Blood LPO ([8]; drug + 6 Gy): 2.44 ± 0.16^c nmol/ml
Liver LPO ([8]; drug + 6 Gy): 3.22 ± 0.12^c nmol/mg
Blood LPO ([8]; drug + 8 Gy): 3.28 ± 0.16^a nmol/ml
Liver LPO ([8]; drug + 8 Gy): 3.80 ± 0.14^c nmol/mg
Blood LPO ([8]; drug + 10 Gy): 3.68 ± 0.18^b nmol/ml
Liver LPO ([8]; drug + 10 Gy): 5.22 ± 0.27^c nmol/mg
Blood LPO ([8]; drug alone, no irradiation): 1.10 ± 0.10 nmol/mL
Liver LPO ([8]; drug alone, no irradiation): 2.42 ± 0.14 nmol/mg

— patent US20180311237A1, “COMPOSITIONS AND METHODS FOR PREVENTING AND TREATING MUCOSITIS AND WEIGHT LOSS” (ST IP Holding AG, priority 2007, published 2018)
